Measured values: patent US8389563B2, “C-substituted diindolylmethane compositions and methods for the treatment of multiple cancers” (The Texas A&M University System, priority 2000, dated 2013)
Like-named read-outs stand apart in the source and are kept apart here. Marks after values point to notes of the source that are not given here.

Assays:
[1] = molecular target: T1, Ah receptor (Rattus norvegicus, UniProt P41738); experiment: Ah receptor competitive binding
T1 sequence (P41738 10-853): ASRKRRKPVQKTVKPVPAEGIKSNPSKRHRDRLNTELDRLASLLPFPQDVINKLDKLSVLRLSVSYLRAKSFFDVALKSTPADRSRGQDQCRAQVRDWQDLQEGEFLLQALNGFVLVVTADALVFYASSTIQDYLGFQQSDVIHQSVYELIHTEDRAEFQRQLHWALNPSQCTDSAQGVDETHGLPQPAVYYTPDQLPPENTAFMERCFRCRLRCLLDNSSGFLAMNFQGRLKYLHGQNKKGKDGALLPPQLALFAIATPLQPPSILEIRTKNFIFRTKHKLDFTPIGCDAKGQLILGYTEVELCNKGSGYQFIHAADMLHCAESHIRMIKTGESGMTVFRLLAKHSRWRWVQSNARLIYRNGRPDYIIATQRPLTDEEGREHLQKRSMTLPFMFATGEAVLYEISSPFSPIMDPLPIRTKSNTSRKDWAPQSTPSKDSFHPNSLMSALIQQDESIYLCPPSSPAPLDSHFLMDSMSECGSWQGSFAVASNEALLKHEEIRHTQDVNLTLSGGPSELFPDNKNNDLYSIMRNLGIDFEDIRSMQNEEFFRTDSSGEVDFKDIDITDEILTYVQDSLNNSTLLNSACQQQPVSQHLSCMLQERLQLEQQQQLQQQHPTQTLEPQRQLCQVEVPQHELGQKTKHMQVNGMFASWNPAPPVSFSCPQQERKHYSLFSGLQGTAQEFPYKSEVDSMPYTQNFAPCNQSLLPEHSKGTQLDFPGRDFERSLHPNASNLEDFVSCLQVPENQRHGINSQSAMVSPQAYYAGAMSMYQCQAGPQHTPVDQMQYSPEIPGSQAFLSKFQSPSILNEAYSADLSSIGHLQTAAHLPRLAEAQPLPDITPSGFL

[2] = test system: T47D human breast cancer cells; experiment: Estrogenic and antiestrogenic activity in T47D cells (proliferation, alone or with 1 nM E2); format: cell-based; conditions: in combination with 1 nM E2
Excerpt: In a separate study, it was also shown that the same compounds and other C-substituted DIMs were also antiestrogenic in T47D cells, and these include the C-p-phenol and C-p-anisole compounds in which R1═CH3 (methyl) (i.e., NMe-CPh-OHDIM and NMe-CPh-MeODIM, respectively) (FIG. 3).

[3] = test system: DMBA-induced mammary tumor; experiment: DMBA-induced rat mammary tumor model; format: in vivo, female Sprague-Dawley rats; conditions: 1.0 mg/kg every 2 days; for Mammary tumor growth in DMBA-induced rats: tumor volumes over 21 days
[4] = test system: MCF-7 human breast cancer cells; experiment: Proliferation of MCF-7 breast cancer cells, alone or with 1 nM E2; format: cell-based; conditions: for E2-induced MCF-7 cell proliferation: co-treated with 1 nM E2; for Growth of MCF-7 cells, compound alone: up to 10 μM
[5] = Body/organ weights, EROD and histopathology in the DMBA-induced rat study; format: in vivo, female Sprague-Dawley rats; conditions: 1.0 mg/kg every 2 days

Structure (SMILES): Cn1cc(C(c2ccc(Cl)cc2)c2cn(C)c3ccccc23)c2ccccc21
- IC50 [1]: 0.55 nM

Structure (SMILES): c1ccc(C(c2c[nH]c3ccccc23)c2c[nH]c3ccccc23)cc1 [C-PhDIM]
- Antiestrogenic activity in T47D cells [2]: antiestrogenic
- IC50 [1]: 98 nM
- Tumor volume [3]: 1025 +/− 245* mm3
- Tumor weight [3]: 1.40 +/− 0.4* g
- Mammary tumor growth in DMBA-induced rats [3]: potent inhibition of mammary tumor growth
- Mammary tumor growth in DMBA-induced rats ([3]; listed as C-phenylDIM): potent inhibition of mammary tumor growth
- Mammary tumor growth in DMBA-induced rats ([3]; listed as C—PhDIM): Illustrates inhibition of DMBA-induced mammary tumor growth in female Sprague-
- E2-induced MCF-7 cell proliferation ([4]; listed as C-phenylDIM): hormone-induced proliferative response was inhibited
- E2-induced MCF-7 cell proliferation ([4]; listed as C—C6H5): significant inhibition of E2-induced cell proliferation
- Growth of MCF-7 cells, compound alone ([4]; listed as C-phenylDIM): did not induce breast cancer cell proliferation
- Growth of MCF-7 cells, compound alone ([4]; listed as C—C6H5): do not affect growth
- Changes in body/organ weights or tissue histopathology [5]: not accompanied by changes in body/organ weights or altered tissue histopathology
- EROD [5]: 309 ± 102 pmol/mg/min
- Heart [5]: 0.38 +/− 0.03 % body weight
- Kidney [5]: 0.33 +/− 0.01 % body weight
- Liver [5]: 3.2 +/− 0.1 % body weight
- Spleen [5]: 0.33 +/− 0.05 % body weight
- Uterus [5]: 0.19 +/− 0.02 % body weight
- Changes in body/organ weights or tissue histopathology ([5]; listed as C-phenylDIM): not accompanied by changes in body/organ weights on altered tissue histopathology

Structure (SMILES): CC(c1c[nH]c2ccccc12)c1c[nH]c2ccccc12 [C-methylDIM]
- Antiestrogenic activity in T47D cells [2]: antiestrogenic
- IC50 [1]: 11 nM
- E2-induced MCF-7 cell proliferation [4]: hormone-induced proliferative response was inhibited
- E2-induced MCF-7 cell proliferation ([4]; listed as C—CH3): significant inhibition of E2-induced cell proliferation
- Growth of MCF-7 cells, compound alone [4]: did not induce breast cancer cell proliferation
- Growth of MCF-7 cells, compound alone ([4]; listed as C—CH3): do not affect growth

Structure (SMILES): FC(F)(F)c1ccc(C(c2c[nH]c3ccccc23)c2c[nH]c3ccccc23)cc1 [C—Ph—CF3DIM]
- Mammary tumor growth in DMBA-induced rats [3]: Illustrates inhibition of DMBA-induced mammary tumor growth in female and C—Ph—CF3DIM

Structure (SMILES): Cn1cc(C(c2ccc(-c3ccccc3)cc2)c2cn(C)c3ccccc23)c2ccccc21 [NMe-C-BiphDIM]
- IC50 ([1]; read-out: IC50 competitive binding values, Ah receptor): 1.8 nM
- Mammary tumor growth in DMBA-induced rats [3]: Illustrates inhibition of DMBA-induced mammary tumor growth in female Sprague-

Structure (SMILES): Cn1cc(C(c2ccc(C(F)(F)F)cc2)c2cn(C)c3ccccc23)c2ccccc21 [NMe-C-Ph-CF3DIM]
- Mammary tumor growth in DMBA-induced rats [3]: Illustrates inhibition of DMBA-induced mammary tumor growth in female Sprague-

Structure (SMILES): COc1ccc(C(c2cn(C)c3ccccc23)c2cn(C)c3ccccc23)cc1 [NMe-C-Ph-MeODIM]
- Antiestrogenic activity in T47D cells [2]: antiestrogenic
- Mammary tumor growth in DMBA-induced rats [3]: Illustrates inhibition of DMBA-induced mammary tumor growth in female Sprague-

Structure (SMILES): Cn1cc(C(c2ccccc2)c2cn(C)c3ccccc23)c2ccccc21 [NMe-C-PhDIM]
- Mammary tumor growth in DMBA-induced rats [3]: Illustrates inhibition of DMBA-induced mammary tumor growth in female Sprague-

Structure (SMILES): Cc1ccc(C(c2cn(C)c3ccccc23)c2cn(C)c3ccccc23)cc1 [NMe-C-PhMeDIM]
- Mammary tumor growth in DMBA-induced rats [3]: Illustrates inhibition of DMBA-induced mammary tumor growth in female Sprague-

Structure (SMILES): Cn1cc(C(c2ccc(O)cc2)c2cn(C)c3ccccc23)c2ccccc21 [NMe-C-PhOHDIM]
- Antiestrogenic activity in T47D cells [2]: antiestrogenic
- Mammary tumor growth in DMBA-induced rats [3]: Illustrates inhibition of DMBA-induced mammary tumor growth in female Sprague-
